Assay results reported in patent publication US20110142866A1, “PEPTIDE ANALOGUES AND CONJUGATES THEREOF” (Eldrug S.A., priority 2007, published 2011).

What was measured:
[1] = test system: MOG35-55 induced EAE; experiment: MOG35-55 EAE, spinal cord histopathology; assay type: in vivo, C57BL/6 mice
Protocol: On day 17 (acute phase of EAE) and day 46 post-EAE-induction (chronic phase of EAE) animals were subjected to transcardial perfusion with 4% paraformaldehyde in PBS. Brains and spinal cords were removed, post-fixed in the same fixative for approximately 20 hours, routinely processed for paraffin embedding and sectioned at […]. Sections from animals of acute and chronic phases of the disease, were then stained using the following methods: a) a modified Bielschowsky silver impregnation staining method combined with haematoxylin, for the simultaneous evaluation of axonal injury, axonal loss and inflammatory processes in EAE as previously described in detail [Lourbopoulos et, al., 2007]; b) Luxol fast blue staining counterstained with Nuclear fast Red for the detection of demyelinating areas within the CNS of animals, using routine histopathological protocols. Pathological evaluation was performed under a light microscope (Olympus Axioplan-2) by two blinded investigators and photos were taken using a CCD camera (Nikon). Five randomly selected longitudinal sections per tissue (brains and spinal cords) were evaluated as follows: for each animal, each section was evaluated under 20× or 40× optical fields (depending on the object of study) so as to cover the entire area of the section. […] Depending on the object of interest the following scales were used to perform the evaluation: (a) For axonal injury (AI), the following scale was used: 0=no AI, 1+=scattered dystrophic injured axons without any spheroid or ovoid, 2+=mild AI with the presence of at least one spheroid or ovoid, 3+=moderate AI, 4+=severe AI; generally injured axons were defined and identified as spheroids and ovoids (which represent axonotmesis), and dilated (dystrophic) axons which represent injured axons not yet being cut. (b) For axonal loss (AL): 0=normal axonal density, 1+=<25% AL, 2+=mild AL (26-50%), 3+=moderate to severe (51-75%) AL, 4+=severe AL (>75%); various degrees of decreased density of axons was attributed to axonal loss and evaluated accordingly. (c) For infiltrations: number of infiltrating cells per optical field and number of infiltrating cells per infiltration. (d) Demyelination was evaluated under 40× optical fields; using a prefrontal grid, we measured the area of demyelination and the total area of white matter in each optical field and then subtracted the % of demyelination present in each optical field.

[2] = test system: MOG35-55 induced EAE; experiment: Chronic MOG35-55 EAE, clinical evaluation; assay type: in vivo, C57BL/6 mice; details: for overall clinical effect on MOG35-55 EAE: co-injection at disease induction at 1:1 ratio
[3] = Stability to proteolysis; assay type: in vitro ADME; details: compared to linear counterparts

Compound: CC[C@H](C)[C@@H]1NC(=O)[C@H](CC(N)=O)NC(=O)[C@H](CCCCN)NC(=O)[C@H](Cc2ccccc2)NC(=O)[C@H](Cc2ccccc2)NC(=O)[C@H](Cc2c[nH]cn2)NC(=O)[C@H](C(C)C)NC(=O)[C@H](C(C)C)NC(=O)[C@@H]2CCCN2C(=O)[C@H](CC(N)=O)NC(=O)[C@H](CCC(=O)O)NC(=O)[C@@H]2CCCN2C(=O)[C@H]([C@@H](C)O)NC(=O)[C@H](CCCNC(=N)N)NC(=O)[C@@H]2CCCN2C(=O)[C@H]([C@@H](C)O)NC(=O)[C@H](C(C)C)NC1=O [cyclo(83-99)MBP83-99, cyclo(83-99)E N P V V H F F K N I V T P R T P]
- demyelination of the white matter of spinal cords ([1]; acute phase): 9.58±10.5%
- effect on axonal injury vs control ([1]; acute phase): mild but statistical significant beneficial effect
- effect on axonal loss vs control ([1]; acute phase): mild effect
- infiltrating cells per optical field ([1]; acute phase): 290.8±277.7
- inflammatory cells per infiltration ([1]; acute phase): 53.72±62.0
- axonal injury per 20x field, % within GROUP ([1]; acute phase, score 0): 14.3%
- axonal loss per 20x field, % within GROUP ([1]; acute phase, score 0): 16.5%
- axonal injury per 20x field, % within GROUP ([1]; acute phase, score 1+): 45.1%
- axonal loss per 20x field, % within GROUP ([1]; acute phase, score 1+): 36.1%
- axonal injury per 20x field, % within GROUP ([1]; acute phase, score 2+): 22.3%
- axonal loss per 20x field, % within GROUP ([1]; acute phase, score 2+): 31.6%
- axonal injury per 20x field, % within GROUP ([1]; acute phase, score 3+): 11.3%
- axonal loss per 20x field, % within GROUP ([1]; acute phase, score 3+): 12.0%
- axonal injury per 20x field, % within GROUP ([1]; acute phase, score 4+): 6.0%
- axonal loss per 20x field, % within GROUP ([1]; acute phase, score 4+): 3.8%
- axonal injury vs control ([1]; chronic phase): not different
- axonal loss vs control ([1]; chronic phase): less
- demyelination of the white matter of spinal cords ([1]; chronic phase): 7.65±11.4%
- infiltrating cells per optical field ([1]; chronic phase): 10.71±39.0
- inflammatory cells per infiltration ([1]; chronic phase): 6.0±15.8
- axonal injury per 20x field, % within GROUP ([1]; chronic phase, score 0): 49.3%
- axonal loss per 20x field, % within GROUP ([1]; chronic phase, score 0): 51.4%
- axonal injury per 20x field, % within GROUP ([1]; chronic phase, score 1+): 29.0%
- axonal loss per 20x field, % within GROUP ([1]; chronic phase, score 1+): 26.8%
- axonal injury per 20x field, % within GROUP ([1]; chronic phase, score 2+): 13.0%
- axonal loss per 20x field, % within GROUP ([1]; chronic phase, score 2+): 10.9%
- axonal injury per 20x field, % within GROUP ([1]; chronic phase, score 3+): 8.0%
- axonal loss per 20x field, % within GROUP ([1]; chronic phase, score 3+): 10.1%
- axonal injury per 20x field, % within GROUP ([1]; chronic phase, score 4+): 0.7%
- axonal loss per 20x field, % within GROUP ([1]; chronic phase, score 4+): 0.7%
- mean day of disease onset ([2]; acute phase experiment): 12.00±0.81
- mean clinical score vs control ([2]; acute phase, days 15, 16 and 17): statistical significant different
- mean Areas Under the Curve (mAUC) ([2]; acute phase, sacrifice day 17, 300 μg co-injected 1:1 with MOG35-55): 13.32±2.55
- mean day of disease onset ([2]; chronic phase experiment): 17.00±11.74
- Mean Maximal Clinical Scores (MMS) ([2]; chronic phase, day 46): 2.375±1.45
- mean Areas Under the Curve (mAUC) ([2]; chronic phase, day 46): 51.08±36.58
- mean clinical score vs control ([2]; chronic phase, entire observation period): lower mean clinical score
- overall clinical effect on MOG35-55 EAE [2]: mild beneficial effect
- overall clinical effect on MOG35-55 EAE ([2]; listed as cyclic MBP83-99): mild preventive benefit
- stability to the proteolysis [3]: increases stability to the proteolysis
